In test [1] the test system is E. coli delta to IC mutant. Nature of the test: MIC by broth microdilution, E. coli delta tolC mutant. The format is cell-based. Particulars: Escherichia coli, read-out: MIC E. coli delta to IC mutant. The method, then: (§1) Minimal inhibitory concentrations (MIC) were determined by the broth microdilution method in accordance with the Clinical and Laboratory Standards Institute (CLSI) guidelines. In brief, organism suspensions were adjusted to a 0.5 McFarland standard to yield a final inoculum between 3×10^5 and 7×10^5 colony-forming units (CFU)/mL. Drug dilutions and inocula were made in sterile, cation adjusted Mueller-Hinton Broth (Beckton Dickinson). An inoculum volume of 100 μL was added to wells containing 100 μL of broth with 2-fold serial dilutions of drug. All inoculated microdilution trays were incubated in ambient air at 35° C. for 18-24 h. […] Performance of the assay was monitored by the use of laboratory quality-control strains and levofloxacin, a compound with a defined MIC spectrum, in accordance with CLSI guidelines.

For a further test, the system named is E. coli BW25113. Nature of the test: MIC by broth microdilution, E. coli BW25113, no FBS. It is filed as cell-based. The note with it: Escherichia coli, 35° C., 18-24 h. As for the experimental part:
as §1
In general terms: Dilution methods test growth across graded concentrations, often in twofold steps.

In test [2] the test system is P. aeruginosa 210 delta mexAB-OprM. Nature of the test: MIC by broth microdilution, P. aeruginosa 210 delta mexAB-OprM. The format is cell-based. Particulars: Pseudomonas aeruginosa, read-out: MIC P. aeruginosa 210 delta mexAB-OprM. As for the experimental part: as §1
Another test deals with S. aureus ATCC 29213. Nature of the test: MIC by broth microdilution, S. aureus ATCC 29213. It is filed as cell-based. The note with it: Staphylococcus aureus, ATCC29213; 35° C., 18-24 h. The method, then: as §1
A further test has as its system P. aeruginosa 209. Nature of the test: MIC by broth microdilution, P. aeruginosa 209. The format is cell-based. The note with it: Pseudomonas aeruginosa, 35° C., 18-24 h. The method, then:
as §1

The next test deals with E. coli imp mutant. Nature of the test: MIC by broth microdilution, E. coli imp mutant. The format is cell-based. The note with it: Escherichia coli, read-out: MIC E. coli imp mutant. As for the experimental part: as §1
A further test has as its system E. coli ATCC 25922. Nature of the test: MIC by broth microdilution, E. coli ATCC 25922, no FBS. The format is cell-based. The note with it: Escherichia coli, ATCC25922, 35° C., 18-24 h. As for the experimental part:
as §1

Test [3] has as its target Klebsiella pneumoniae LpxC (Klebsiella pneumoniae subsp. pneumoniae (strain ATCC 700721 / MGH 78578), UniProt A6T4N9). Nature of the test: Inhibition Assay against Klebsiella pneumoniae LpxC (LC-MS/MS). It is filed as biochemical. The note with it: 0.2 nM Kpn LpxC, 22° C., 60 minutes. As for the experimental part:
LpxC inhibition assays were performed using liquid chromatography with tandem mass spectrometry. Assays were performed, in duplicate, in opaque, 96-well microplates in a total assay volume of 50 μL. The incubation mixture contained: LpxC (0.2 nM Kpn), 0.8 μM UDP-3-O—[(R)-3-hydroxymyristoyl]-N-acetyl-glucosamine, 40 mM Bis-Tris/HCl buffer (pH 5.9), 5 mM sodium phosphate buffer (NaH2PO4/Na2HPO4, pH 7.0), 1 mM DTT, 0.1% (w/v) fatty-acid free BSA, 10% DMSO (v/v, with or without compound). The reactions were incubated at 22° C. for 60 minutes (with mild shaking), then terminated by the addition of 25 μL 0.25 N HCl. Samples were analyzed using a LC-MS system to measure native LpxC substrate and reaction product. IC50 analysis was done using GeneData Screener and a four parameter variable slope normalized to controls. Test compounds were prepared as 8-point dose-response curves (factor dilution 2) in triplicate, starting at 1 μM final concentration. Each assay plate included 6 wells used for the Z′ factor calculation, 3 as a positive control for the assay and 3 as a negative control. The robustness was calculated as the median Z′ factor for 5 plates.

Consider 13 molecules from patent publication US10875832B2, “Substituted pyrimidines for treating bacterial infections” (FORGE THERAPEUTICS, INC., priority 2015, dated 2020).

Converted amounts (≈) assume the structure as drawn.

For `Cc1nc(C(=O)O)c(O)c(=O)n1CC(O)c1ccc(C#Cc2ccc(CN3CCOCC3)cc2)cc1` (stereo not drawn) [Compound 93], the MIC (in test [1]; against E. coli BW25113; in test [2]; against S. aureus ATCC 29213; against P. aeruginosa 209; in the test with E. coli imp mutant) was over 32 µg/mL throughout. In the test with E. coli ATCC 25922, this molecule showed an MIC of over 32 µg/mL.

Consider `Cc1nc(C(=O)O)c(O)c(=O)n1CC(O)c1ccc(C#Cc2ccccc2)cc1` (stereo not drawn) [Compound 90], for which the MIC in test [1] was 8 to 32 µg/mL (≈ 20.5 to 82 µM); in the test with E. coli BW25113, over 32 µg/mL; in test [2], over 32 µg/mL; in the test with S. aureus ATCC 29213, over 32 µg/mL; in the test with P. aeruginosa 209 it was over 32 µg/mL; with E. coli imp mutant it was 1 to 8 µg/mL (≈ 2.56 to 20.5 µM). In the test on E. coli ATCC 25922, this molecule gave an MIC of over 32 µg/mL.

For the molecule `O=c1[nH]cnc(CNc2ccc(C#Cc3ccc(-c4nnn[nH]4)cc3)cc2)c1O` [Compound 103], the MIC is 1 to 8 µg/mL (≈ 2.59 to 20.8 µM) in test [1]; over 32 µg/mL in the test with E. coli BW25113; over 32 µg/mL in test [2]; over 32 µg/mL against S. aureus ATCC 29213; over 32 µg/mL in the test with P. aeruginosa 209; over 32 µg/mL with E. coli imp mutant. The same molecule showed an MIC in the test with E. coli ATCC 25922 of over 32 µg/mL.

`O=C(O)c1ccc(C#Cc2ccc(NCc3nc[nH]c(=O)c3O)cc2)cc1` [Compound 101]: the MIC in test [1] was 1 to 8 µg/mL (≈ 2.77 to 22.1 µM); against E. coli BW25113 it was over 32 µg/mL; in test [2], over 32 µg/mL; against S. aureus ATCC 29213, over 32 µg/mL; with P. aeruginosa 209 it was over 32 µg/mL; in the test with E. coli imp mutant, over 32 µg/mL. This molecule had an MIC with E. coli ATCC 25922 of over 32 µg/mL.

Take `O=C(c1ccc(C#CC#Cc2ccc(NCc3nc[nH]c(=O)c3O)cc2)cc1)N1CCC(N2CCOCC2)CC1` [Compound 78]: the MIC in test [1] is under 1 µg/mL; in the test with E. coli BW25113, 1 to 8 µg/mL (≈ 1.86 to 14.9 µM); in test [2], over 32 µg/mL; against S. aureus ATCC 29213 it was over 32 µg/mL; against P. aeruginosa 209, over 32 µg/mL; in the test on E. coli imp mutant it was under 1 µg/mL. This molecule had an MIC with E. coli ATCC 25922 of over 32 µg/mL.

With `CN(C)C1CCN(C(=O)c2ccc(C#CC#Cc3ccc(NCc4nc[nH]c(=O)c4O)cc3)cc2)CC1` [Compound 74], the MIC in test [1] was under 1 µg/mL; against E. coli BW25113 it was 1 to 8 µg/mL (≈ 2.02 to 16.1 µM); in test [2] it was over 32 µg/mL; against S. aureus ATCC 29213 it was over 32 µg/mL; in the test on P. aeruginosa 209, over 32 µg/mL; in the test with E. coli imp mutant it was 1 to 8 µg/mL (≈ 2.02 to 16.1 µM). In the test with E. coli ATCC 25922, this molecule came in with an MIC of 8 to 32 µg/mL (≈ 16.1 to 64.6 µM).

Consider `O=c1[nH]cnc(CNc2ccc(C#Cc3ccc(CN4CCOCC4)cc3)cc2)c1O` [Compound 98], for which the IC50 (commonly the point on the concentration scale where inhibition reaches its midpoint) in test [3] lay in the range of 10 to 100 nM. In addition, the MIC in test [1] was under 1 µg/mL; with E. coli BW25113, under 1 µg/mL; in test [2], over 32 µg/mL; in the test with S. aureus ATCC 29213 it was over 32 µg/mL; against P. aeruginosa 209, over 32 µg/mL; in the test with E. coli imp mutant, 1 to 8 µg/mL (≈ 2.4 to 19.2 µM). In the test on E. coli ATCC 25922, this molecule gave an MIC of 1 to 8 µg/mL (≈ 2.4 to 19.2 µM).

Regarding `Cc1nc(C(=O)O)c(O)c(=O)n1CC(=O)c1ccc(-c2ccccc2)cc1` [Compound 82, 1-(2-([1,1′-biphenyl]-4-yl)-2-oxoethyl)-5-hydroxy-2-methyl-6-oxo-1,6-dihydro pyrimidine-4-carboxylic acid], the MIC in test [1] was 8 to 32 µg/mL (≈ 22 to 87.8 µM); in the test with E. coli BW25113 it was over 32 µg/mL; in test [2] it was over 32 µg/mL; in the test on S. aureus ATCC 29213, over 32 µg/mL; in the test on P. aeruginosa 209 it was over 32 µg/mL; with E. coli imp mutant it was 1 to 8 µg/mL (≈ 2.74 to 22 µM). The molecule also yielded an MIC against E. coli ATCC 25922 of over 32 µg/mL.

In the case of `COC(=O)c1ccc(C#CC#Cc2ccc(NCc3nc[nH]c(=O)c3O)cc2)cc1` [Compound 71, Methyl 4-((4-(((5-hydroxy-6-oxo-1,6-dihydropyrimidin-4-yl)methyl)amino)phenyl)buta-1,3-diyn-1-yl)benzoate], the MIC (in test [1]; with E. coli BW25113; in test [2]; in the test with S. aureus ATCC 29213; against P. aeruginosa 209; with E. coli imp mutant) was over 32 µg/mL each time. Further, in the test on E. coli ATCC 25922, the MIC is over 32 µg/mL.

On to `O=c1[nH]cnc(CNc2ccc(-c3ccccc3)cc2)c1O` [Compound 96], for which the MIC (in test [1]; against E. coli BW25113; in test [2]; in the test on S. aureus ATCC 29213; in the test with P. aeruginosa 209; in the test with E. coli imp mutant) was over 32 µg/mL in each case. In the test on E. coli ATCC 25922, this molecule displayed an MIC of over 32 µg/mL.

Regarding `O=C(c1ccc(C#CC#Cc2ccc(NCc3nc[nH]c(=O)c3O)cc2)cc1)N1CCOCC1` [Compound 97], in test [3], the IC50 lay within 10 to 100 nM. Moreover, the MIC in test [1] was under 1 µg/mL; in the test with E. coli BW25113, under 1 µg/mL; in test [2], over 32 µg/mL; against S. aureus ATCC 29213, over 32 µg/mL; in the test on P. aeruginosa 209, over 32 µg/mL; with E. coli imp mutant, under 1 µg/mL. In the test on E. coli ATCC 25922, this molecule registered an MIC of 1 to 8 µg/mL (≈ 2.2 to 17.6 µM).

For the molecule `O=C(NCCO)c1ccc(C#CC#Cc2ccc(NCc3nc[nH]c(=O)c3O)cc2)cc1` [Compound 88], the MIC was under 1 µg/mL in test [1]; under 1 µg/mL with E. coli BW25113; over 32 µg/mL in test [2]; over 32 µg/mL in the test with S. aureus ATCC 29213; over 32 µg/mL in the test on P. aeruginosa 209; under 1 µg/mL in the test on E. coli imp mutant. In addition, the MIC against E. coli ATCC 25922 is under 1 µg/mL.

Regarding `O=C(c1ccc(C#CC#Cc2ccc(NCc3nc[nH]c(=O)c3O)cc2)cc1)N1CC(O)C1` [Compound 86], the MIC in test [1] is under 1 µg/mL; against E. coli BW25113, under 1 µg/mL; in test [2] it was over 32 µg/mL; against S. aureus ATCC 29213 it was over 32 µg/mL; with P. aeruginosa 209, over 32 µg/mL; with E. coli imp mutant, under 1 µg/mL. The molecule also yielded an MIC with E. coli ATCC 25922 of under 1 µg/mL.
